Tests used:
Apolipoprotein L1 = Apolipoprotein L1 (Homo sapiens, UniProt O14791); test: Inhibition of APOL1 G1 variant in human HEK293-T-REx cells measured by Thallium assay; type: cell-based
[1] = system: Trypanosoma brucei brucei; test: Antitrypanosomal activity against Trypanosoma brucei brucei assessed as trypanosome lysis using recombinant APOL1 protein G1 variant and measured by Alamar blue based fluoresence assay; type: functional, organism-based

Compound O=C(N[C@H]1CC[C@@H](CO)O1)[C@H]1C[C@H](c2c(-c3ccc(F)cc3)[nH]c3c(F)cc(F)cc32)C1 has an IC50 (Apolipoprotein L1) of over 1000 nM and an IC50 [1] of over 1000 nM.
With O=C1CC[C@H](NC(=O)[C@H]2C[C@H](c3c(-c4ccc(F)cc4)[nH]c4c(F)cc(F)cc43)C2)C1 the IC50 (Apolipoprotein L1) was 0.25 nM and the IC50 [1] was 250 nM.
O=C1CCC(NC(=O)[C@H]2C[C@H](c3c(-c4ccc(F)cc4)[nH]c4c(F)cc(F)cc43)C2)C1 (some centres undefined) was tested, and the IC50 (Apolipoprotein L1) was over 1000 nM and the IC50 [1] was over 1000 nM.
With O=C1C[C@H](NC(=O)[C@H]2C[C@H](c3c(-c4ccc(F)cc4)[nH]c4c(F)cc(F)cc43)C2)C(=O)N1 the IC50 (Apolipoprotein L1) was under 250 nM and the IC50 [1] was under 250 nM.
Work on CN(CC(O)CO)C(=O)[C@H]1C[C@H](c2c(-c3ccc(F)cc3)[nH]c3c(F)cc(F)cc32)C1 (some centres undefined) yielded an IC50 (Apolipoprotein L1) of over 1000 nM and an IC50 [1] of 250 nM.
With O=C([C@H]1C[C@H](c2c(-c3ccc(F)cc3)[nH]c3c(F)cc(F)cc32)C1)N1CC(O)C(CO)C1 (some centres undefined) the IC50 (Apolipoprotein L1) was over 1000 nM and the IC50 [1] was 250 nM.
With O=C([C@H]1C[C@H](c2c(-c3ccc(F)cc3)[nH]c3c(F)cc(F)cc32)C1)N1CC[C@H]1CO the IC50 (Apolipoprotein L1) was 0.25 nM and the IC50 [1] was under 250 nM.
In the case of Cc1noc(CNC(=O)[C@H]2C[C@H](c3c(-c4ccc(F)cc4)[nH]c4c(F)cc(F)cc43)C2)n1, the IC50 (Apolipoprotein L1) is reported as under 250 nM and the IC50 [1] is reported as under 250 nM.
For O=C([C@H]1C[C@H](c2c(-c3ccc(F)cc3)[nH]c3c(F)cc(F)cc32)C1)N1CCC[C@@H]1CO, the IC50 (Apolipoprotein L1) was 0.25 nM and the IC50 [1] was under 250 nM.
In the case of O=C([C@H]1C[C@H](c2c(-c3ccc(F)cc3)[nH]c3c(F)cc(F)cc32)C1)N1CCCC[C@H]1CO, the IC50 (Apolipoprotein L1) is reported as over 1000 nM and the IC50 [1] is reported as 250 nM.
Compound O=C([C@H]1C[C@H](c2c(-c3ccc(F)cc3)[nH]c3c(F)cc(F)cc32)C1)N1CCCC[C@@H]1CCO has an IC50 (Apolipoprotein L1) of over 1000 nM and an IC50 [1] of over 1000 nM.
With O=C([C@H]1C[C@H](c2c(-c3ccc(F)cc3)[nH]c3c(F)cc(F)cc32)C1)N1CCCCC1CO (some centres undefined) the IC50 (Apolipoprotein L1) was over 1000 nM and the IC50 [1] was 250 nM.
Compound O=C1C[C@@H](NC(=O)[C@H]2C[C@H](c3c(-c4ccc(F)cc4)[nH]c4c(F)cc(F)cc43)C2)C(=O)N1 has an IC50 (Apolipoprotein L1) of under 250 nM and an IC50 [1] of under 250 nM.
In the case of NC(=O)[C@H]1C[C@H](c2c(-c3ccc(F)cc3)[nH]c3c(F)cc(F)cc32)C1, the IC50 (Apolipoprotein L1) is reported as 0.25 nM and the IC50 [1] is reported as under 250 nM.
For N#CC(CO)NC(=O)[C@H]1C[C@H](c2c(-c3ccc(F)cc3)[nH]c3c(F)cc(F)cc32)C1 (some centres undefined), the IC50 (Apolipoprotein L1) was under 250 nM and the IC50 [1] was under 250 nM.
Work on O=C([C@H]1C[C@H](c2c(-c3ccc(F)cc3)[nH]c3c(F)cc(F)cc32)C1)N1CCC[C@H]1CO yielded an IC50 (Apolipoprotein L1) of over 1000 nM and an IC50 [1] of 250 nM.
In the case of CC(CO)(CO)NC(=O)[C@H]1C[C@H](c2c(-c3ccc(F)cc3)[nH]c3c(F)cc(F)cc32)C1, the IC50 (Apolipoprotein L1) is reported as under 250 nM and the IC50 [1] is reported as under 250 nM.
Compound NC(=O)[C@H]1CCCN1C(=O)[C@H]1C[C@H](c2c(-c3ccc(F)cc3)[nH]c3c(F)cc(F)cc32)C1 has an IC50 (Apolipoprotein L1) of 0.25 nM and an IC50 [1] of over 1000 nM.
Compound Cn1cncc1CNC(=O)[C@H]1C[C@H](c2c(-c3ccc(F)cc3)[nH]c3c(F)cc(F)cc32)C1 has an IC50 (Apolipoprotein L1) of over 1000 nM and an IC50 [1] of 250 nM.
O=C1N[C@H](CO)C[C@@H]1NC(=O)[C@H]1C[C@H](c2c(-c3ccc(F)cc3)[nH]c3c(F)cc(F)cc32)C1 was tested, and the IC50 (Apolipoprotein L1) was over 1000 nM and the IC50 [1] was over 1000 nM.
CC[C@@H](CO)NC(=O)[C@H]1C[C@H](c2c(-c3ccc(F)cc3)[nH]c3c(F)cc(F)cc32)C1 gave an IC50 (Apolipoprotein L1) of 0.25 nM and an IC50 [1] of under 250 nM.
In the case of O=C([C@H]1C[C@H](c2c(-c3ccc(F)cc3)[nH]c3c(F)cc(F)cc32)C1)N1CCCC(CO)C1 (some centres undefined), the IC50 (Apolipoprotein L1) is reported as over 1000 nM and the IC50 [1] is reported as over 1000 nM.
Work on CCC(CO)NC(=O)[C@H]1C[C@H](c2c(-c3ccc(F)cc3)[nH]c3c(F)cc(F)cc32)C1 (some centres undefined) yielded an IC50 (Apolipoprotein L1) of under 250 nM and an IC50 [1] of 250 nM.
O=C(NCc1nnco1)[C@H]1C[C@H](c2c(-c3ccc(F)cc3)[nH]c3c(F)cc(F)cc32)C1 gave an IC50 (Apolipoprotein L1) of 0.25 nM and an IC50 [1] of under 250 nM.
In the case of O=C(NC[C@H](O)C(F)(F)F)[C@H]1C[C@H](c2c(-c3ccc(F)cc3)[nH]c3c(F)cc(F)cc32)C1, the IC50 (Apolipoprotein L1) is reported as 0.25 nM and the IC50 [1] is reported as under 250 nM.
For O=C(NCC1(O)CC1)[C@H]1C[C@H](c2c(-c3ccc(F)cc3)[nH]c3c(F)cc(F)cc32)C1, the IC50 (Apolipoprotein L1) was 0.25 nM and the IC50 [1] was 250 nM.
CC(CO)N(C)C(=O)[C@H]1C[C@H](c2c(-c3ccc(F)cc3)[nH]c3c(F)cc(F)cc32)C1 (some centres undefined) showed an IC50 (Apolipoprotein L1) of under 250 nM and an IC50 [1] of 250 nM.
O=C1NCC[C@@H]1NC(=O)[C@H]1C[C@H](c2c(-c3ccc(F)cc3)[nH]c3c(F)cc(F)cc32)C1 gave an IC50 (Apolipoprotein L1) of 0.25 nM and an IC50 [1] of 250 nM.
O=C(N[C@H]1CCC[C@@H]1O)[C@H]1C[C@H](c2c(-c3ccc(F)cc3)[nH]c3c(F)cc(F)cc32)C1 was tested, and the IC50 (Apolipoprotein L1) was 0.25 nM and the IC50 [1] was 250 nM.
O=C(N[C@@H]1CCC[C@H]1O)[C@H]1C[C@H](c2c(-c3ccc(F)cc3)[nH]c3c(F)cc(F)cc32)C1 showed an IC50 (Apolipoprotein L1) of over 1000 nM and an IC50 [1] of over 1000 nM.
O=C(N[C@H](CO)C(F)(F)F)[C@H]1C[C@H](c2c(-c3ccc(F)cc3)[nH]c3c(F)cc(F)cc32)C1 was tested, and the IC50 (Apolipoprotein L1) was 0.25 nM and the IC50 [1] was under 250 nM.
Compound O=C([C@H]1C[C@H](c2c(-c3ccc(F)cc3)[nH]c3c(F)cc(F)cc32)C1)N1CCCC(O)C1 (some centres undefined) has an IC50 (Apolipoprotein L1) of over 1000 nM and an IC50 [1] of 250 nM.

— ChEMBL document CHEMBL5052856, “Inhibitors of apol1 and methods of using same” (2021)
